Where a SMILES comes first, the peptide text is derived from it. [ ]: non-standard residue; d: D form. The star is where a group is joined. NHCH2CH2OH = OCCN*; For = O=C*

Data set [1] can be described thus: H+/Na+ transport assay of bead-derived peptides (one-point).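 Further: relative to parent gramicidin A activity set to 1.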 The conditions noted are these: bead-derived peptide solution, EYPC/EYPG LUVs. Further details: key: relative activity; mean of two control wells = 1.00. It is filed as biochemical. The method, boiled down:
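H+/Na+ transport is monitored through pyranine fluorescence in freshly extruded LUVs after a 30-min room-temperature vortex with each library peptide at a single concentration. Signals are normalized to detergent (Triton X-100) and untreated controls.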

Data set [2] relates to P388 mouse leukemia cells. The conditions noted are these: 92 h. The method, boiled down:
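Peptide stocks diluted 250× in growth medium; P388 cells 1 × 10^4 cells/mL final; 37 °C, 5% CO2, 92 h. WST-1 + 1-methoxy PMS, 4 h, A415. Output: % viability.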

In data set [3] the test system is Streptococcus pyogenes SSI-9. In words: Antibacterial activity assay of bead-derived peptides (three concentrations). Details: key: +++: inhibition by the 640-fold diluted peptide solution; ++: inhibition by the 160-fold diluted solution; +: inhibition by the 40-fold diluted solution; -: no inhibition. The conditions noted are these: S. pyogenes, bead-derived peptide solution, three concentrations. It is filed as cell-based. The method, boiled down: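 Growth inhibition scored visually as precipitated bacteria after 37 °C, 18 h incubation. Streptococcus pyogenes SSI-9 inoculum of 2 × 10^5 CFU in Ca2+/Mg2+-adjusted Mueller Hinton broth plus 5% laked horse blood; peptides tested at three levels: stock, 4-fold and 16-fold DMSO dilutions.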

As for `CC(C)C[C@@H](NC(=O)[C@H](C)NC(=O)CNC(=O)[C@@H](NC=O)C(C)C)C(=O)N[C@@H](C)C(=O)N[C@@H](C(=O)N[C@H](C(=O)N[C@@H](C(=O)N[C@@H](Cc1c[nH]c2ccccc12)C(=O)N[C@@H](C(=O)N[C@@H](Cc1c[nH]c2ccccc12)C(=O)N[C@H](CC(C)C)C(=O)N[C@@H](Cc1c[nH]c2ccccc12)C(=O)N[C@@H](C(=O)N[C@@H](Cc1c[nH]c2ccccc12)C(=O)NCCO)C(C)C)C(C)C)C(C)C)C(C)C)[C@H](C)O` [compound 10415] (For-VGA[dL]A[dT]V[dV]W[dV]W[dL]W[dV]W-NHCH2CH2OH), the “H+/Na+ transport activity normalized against the value of 1 (1.00)” value (shortened to “H+/Na+ transport activity normalized”) in data set [1] is given as 1.02. This compound also showed a cell viability/% in data set [2] of 100.0%. In data set [3], the antibacterial activity entry is listed as “-”.

As to `CC(C)C[C@@H](NC(=O)[C@H](C)NC(=O)CNC(=O)[C@@H](NC=O)C(C)C)C(=O)N[C@@H](C)C(=O)N[C@H](CC(C)C)C(=O)N[C@H](C(=O)N[C@H](CC(C)C)C(=O)N[C@@H](Cc1c[nH]c2ccccc12)C(=O)N[C@@H](C(=O)N[C@@H](Cc1c[nH]c2ccccc12)C(=O)N[C@@H](C(=O)N[C@@H](Cc1c[nH]c2ccccc12)C(=O)N[C@H](CC(C)C)C(=O)N[C@@H](Cc1c[nH]c2ccccc12)C(=O)NCCO)C(C)C)[C@H](C)O)C(C)C` [compound 10442] (For-VGA[dL]A[dL]V[dL]W[dT]W[dV]W[dL]W-NHCH2CH2OH), the “H+/Na+ transport activity normalized” value in data set [1] is listed as 1.15. This compound also returned a cell viability/% in data set [2] of 100.0%. Further, in data set [3], the antibacterial activity entry is reported as “-”.

`CC(C)C[C@@H](NC(=O)[C@H](C)NC(=O)CNC(=O)[C@@H](NC=O)C(C)C)C(=O)N[C@@H](C)C(=O)N[C@H](CC(C)C)C(=O)N[C@H](C(=O)N[C@@H](C(=O)N[C@@H](Cc1c[nH]c2ccccc12)C(=O)N[C@@H](C(=O)N[C@@H](Cc1c[nH]c2ccccc12)C(=O)N[C@H](CC(C)C)C(=O)N[C@@H](Cc1c[nH]c2ccccc12)C(=O)N[C@@H](C(=O)N[C@@H](Cc1c[nH]c2ccccc12)C(=O)NCCO)C(C)C)C(C)C)C(C)C)C(C)C` [compound 10456] (For-VGA[dL]A[dL]V[dV]W[dV]W[dL]W[dV]W-NHCH2CH2OH): the “H+/Na+ transport activity normalized” value in data set [1] is listed as 1.13. In data set [2], this compound came in with a cell viability/% of 11.8%. Moreover, in data set [3], the antibacterial activity entry is listed as “+”.

Take `CC(C)C[C@@H](NC(=O)[C@H](C)NC(=O)[C@H](NC(=O)[C@H](C)NC(=O)CNC(=O)[C@@H](NC=O)C(C)C)[C@H](C)O)C(=O)N[C@H](C(=O)N[C@H](CC(C)C)C(=O)N[C@@H](Cc1c[nH]c2ccccc12)C(=O)N[C@H](CC(C)C)C(=O)N[C@@H](Cc1c[nH]c2ccccc12)C(=O)N[C@H](CC(C)C)C(=O)N[C@@H](Cc1c[nH]c2ccccc12)C(=O)N[C@H](CC(C)C)C(=O)N[C@@H](Cc1c[nH]c2ccccc12)C(=O)NCCO)C(C)C` [compound 10497] (For-VGA[dT]A[dL]V[dL]W[dL]W[dL]W[dL]W-NHCH2CH2OH): the “H+/Na+ transport activity normalized” value in data set [1] was 1.24. In data set [2], this compound displayed a cell viability/% of 100.0%. The antibacterial activity entry in data set [3] was “-”.

As for `CC(C)C[C@@H](NC(=O)[C@H](C)NC(=O)CNC(=O)[C@@H](NC=O)C(C)C)C(=O)N[C@@H](C)C(=O)N[C@H](CC(C)C)C(=O)N[C@H](C(=O)N[C@H](CC(C)C)C(=O)N[C@@H](Cc1c[nH]c2ccccc12)C(=O)N[C@@H](C(=O)N[C@@H](Cc1c[nH]c2ccccc12)C(=O)N[C@H](CC(C)C)C(=O)N[C@@H](Cc1c[nH]c2ccccc12)C(=O)N[C@@H](C(=O)N[C@@H](Cc1c[nH]c2ccccc12)C(=O)NCCO)C(C)C)[C@H](C)O)C(C)C` [compound 10499] (For-VGA[dL]A[dL]V[dL]W[dT]W[dL]W[dV]W-NHCH2CH2OH), the “H+/Na+ transport activity normalized” value in data set [1] amounted to 1.14. In data set [2], this compound displayed a cell viability/% of 100.0%. Besides, in data set [3], the antibacterial activity result was “-”.

In the case of `CC(C)C[C@@H](NC(=O)[C@H](Cc1c[nH]c2ccccc12)NC(=O)[C@H](NC(=O)[C@H](Cc1c[nH]c2ccccc12)NC(=O)[C@H](NC(=O)[C@H](Cc1c[nH]c2ccccc12)NC(=O)[C@@H](CC(C)C)NC(=O)[C@@H](NC(=O)[C@H](NC(=O)[C@H](C)NC(=O)[C@H](NC(=O)[C@H](C)NC(=O)CNC(=O)[C@@H](NC=O)C(C)C)[C@H](C)O)C(C)C)C(C)C)C(C)C)C(C)C)C(=O)N[C@@H](Cc1c[nH]c2ccccc12)C(=O)NCCO` [compound 10500] (For-VGA[dT]A[dV]V[dL]W[dV]W[dV]W[dL]W-NHCH2CH2OH), the “H+/Na+ transport activity normalized” value in data set [1] came out at 1.14. Moreover, in data set [2], the cell viability/% turned out to be 100.0%. For the same compound, in data set [3], the antibacterial activity entry is “-”.

As to `CC(C)C[C@@H](NC(=O)[C@H](Cc1c[nH]c2ccccc12)NC(=O)[C@H](NC(=O)[C@H](Cc1c[nH]c2ccccc12)NC(=O)[C@@H](CC(C)C)NC(=O)[C@H](Cc1c[nH]c2ccccc12)NC(=O)[C@@H](CC(C)C)NC(=O)[C@@H](NC(=O)[C@H](NC(=O)[C@H](C)NC(=O)[C@H](NC(=O)[C@H](C)NC(=O)CNC(=O)[C@@H](NC=O)C(C)C)C(C)C)C(C)C)C(C)C)[C@H](C)O)C(=O)N[C@@H](Cc1c[nH]c2ccccc12)C(=O)NCCO` [compound 10516] (For-VGA[dV]A[dV]V[dL]W[dL]W[dT]W[dL]W-NHCH2CH2OH), the “H+/Na+ transport activity normalized” value in data set [1] is given as 1.10. For the same compound, the cell viability/% in data set [2] is 100.0%. The antibacterial activity result in data set [3] is “-”.

For `CC(C)C[C@@H](NC(=O)[C@H](C)NC(=O)[C@H](NC(=O)[C@H](C)NC(=O)CNC(=O)[C@@H](NC=O)C(C)C)C(C)C)C(=O)N[C@H](C(=O)N[C@@H](C(=O)N[C@@H](Cc1c[nH]c2ccccc12)C(=O)N[C@@H](C(=O)N[C@@H](Cc1c[nH]c2ccccc12)C(=O)N[C@H](CC(C)C)C(=O)N[C@@H](Cc1c[nH]c2ccccc12)C(=O)N[C@H](CC(C)C)C(=O)N[C@@H](Cc1c[nH]c2ccccc12)C(=O)NCCO)[C@H](C)O)[C@H](C)O)C(C)C` [compound 10517] (For-VGA[dV]A[dL]V[dT]W[dT]W[dL]W[dL]W-NHCH2CH2OH), the “H+/Na+ transport activity normalized” value in data set [1] came out at 1.05. In addition, the cell viability/% in data set [2] came out at 100.0%. For the same compound, the antibacterial activity entry in data set [3] is “-”.

As to `CC(C)C[C@@H](NC(=O)[C@H](C)NC(=O)CNC(=O)[C@@H](NC=O)C(C)C)C(=O)N[C@@H](C)C(=O)N[C@H](CC(C)C)C(=O)N[C@H](C(=O)N[C@@H](C(=O)N[C@@H](Cc1c[nH]c2ccccc12)C(=O)N[C@@H](C(=O)N[C@@H](Cc1c[nH]c2ccccc12)C(=O)N[C@@H](C(=O)N[C@@H](Cc1c[nH]c2ccccc12)C(=O)N[C@@H](C(=O)N[C@@H](Cc1c[nH]c2ccccc12)C(=O)NCCO)C(C)C)C(C)C)C(C)C)C(C)C)C(C)C` [compound 10536] (For-VGA[dL]A[dL]V[dV]W[dV]W[dV]W[dV]W-NHCH2CH2OH), in data set [1], the “H+/Na+ transport activity normalized” value is given as 1.21. Moreover, the cell viability/% in data set [2] was 100.0%. In addition, the antibacterial activity result in data set [3] is on record as “+”.

On to `CC(C)C[C@@H](NC(=O)[C@H](C)NC(=O)CNC(=O)[C@@H](NC=O)C(C)C)C(=O)N[C@@H](C)C(=O)N[C@H](CC(C)C)C(=O)N[C@H](C(=O)N[C@@H](C(=O)N[C@@H](Cc1c[nH]c2ccccc12)C(=O)N[C@@H](C(=O)N[C@@H](Cc1c[nH]c2ccccc12)C(=O)N[C@@H](C(=O)N[C@@H](Cc1c[nH]c2ccccc12)C(=O)N[C@H](CC(C)C)C(=O)N[C@@H](Cc1c[nH]c2ccccc12)C(=O)NCCO)C(C)C)[C@H](C)O)C(C)C)C(C)C` [compound 10542] (For-VGA[dL]A[dL]V[dV]W[dT]W[dV]W[dL]W-NHCH2CH2OH), for which the “H+/Na+ transport activity normalized” value in data set [1] is recorded as 1.02. In data set [2], this compound came in with a cell viability/% of 100.0%. The antibacterial activity entry in data set [3] is listed as “-”.

With `CC(C)C[C@@H](NC(=O)[C@H](C)NC(=O)[C@H](NC(=O)[C@H](C)NC(=O)CNC(=O)[C@@H](NC=O)C(C)C)C(C)C)C(=O)N[C@H](C(=O)N[C@@H](C(=O)N[C@@H](Cc1c[nH]c2ccccc12)C(=O)N[C@H](CC(C)C)C(=O)N[C@@H](Cc1c[nH]c2ccccc12)C(=O)N[C@H](CC(C)C)C(=O)N[C@@H](Cc1c[nH]c2ccccc12)C(=O)N[C@H](CC(C)C)C(=O)N[C@@H](Cc1c[nH]c2ccccc12)C(=O)NCCO)C(C)C)C(C)C` [compound 10593] (For-VGA[dV]A[dL]V[dV]W[dL]W[dL]W[dL]W-NHCH2CH2OH), the “H+/Na+ transport activity normalized” value in data set [1] is on record as 1.10. Besides, the cell viability/% in data set [2] worked out at 38.5%. Further, the antibacterial activity result in data set [3] is “+”.

Turning to `CC(C)C[C@@H](NC(=O)[C@H](Cc1c[nH]c2ccccc12)NC(=O)[C@@H](CC(C)C)NC(=O)[C@H](Cc1c[nH]c2ccccc12)NC(=O)[C@H](NC(=O)[C@H](Cc1c[nH]c2ccccc12)NC(=O)[C@H](NC(=O)[C@@H](NC(=O)[C@H](NC(=O)[C@H](C)NC(=O)[C@H](NC(=O)[C@H](C)NC(=O)CNC(=O)[C@@H](NC=O)C(C)C)C(C)C)C(C)C)C(C)C)C(C)C)C(C)C)C(=O)N[C@@H](Cc1c[nH]c2ccccc12)C(=O)NCCO` [compound 10649] (For-VGA[dV]A[dV]V[dV]W[dV]W[dL]W[dL]W-NHCH2CH2OH), in data set [1], the “H+/Na+ transport activity normalized” value is recorded as 1.19. In data set [2], this compound came in with a cell viability/% of 100.0%. The antibacterial activity entry in data set [3] is given as “++”.

These data come from paper PMC7531004, “Discovery of gramicidin A analogues with altered activities by multidimensional screening of a one-bead-one-compound library” (Nature Communications, 2020).
